Measured values: patent publication US9096531B2, “Fused imidazole derivative” (TOA EIYO LTD., priority 2010, dated 2015)
pIC50: −log10 of the molar value.

Assays:
[1] = biological target: T1, human T-type calcium channels (human Cav3.2) (Homo sapiens, UniProt O95180); experiment: Intracellular calcium (Fura2 fluorescence) assay in HEK293 cells stably expressing human Cav3.2; assay type: cell-based; details: Fura2 fluorescence ratio after calcium chloride addition, 15 min with compound
T1 construct: expressed in transfected cells
T1 sequence (O95180 whole entry): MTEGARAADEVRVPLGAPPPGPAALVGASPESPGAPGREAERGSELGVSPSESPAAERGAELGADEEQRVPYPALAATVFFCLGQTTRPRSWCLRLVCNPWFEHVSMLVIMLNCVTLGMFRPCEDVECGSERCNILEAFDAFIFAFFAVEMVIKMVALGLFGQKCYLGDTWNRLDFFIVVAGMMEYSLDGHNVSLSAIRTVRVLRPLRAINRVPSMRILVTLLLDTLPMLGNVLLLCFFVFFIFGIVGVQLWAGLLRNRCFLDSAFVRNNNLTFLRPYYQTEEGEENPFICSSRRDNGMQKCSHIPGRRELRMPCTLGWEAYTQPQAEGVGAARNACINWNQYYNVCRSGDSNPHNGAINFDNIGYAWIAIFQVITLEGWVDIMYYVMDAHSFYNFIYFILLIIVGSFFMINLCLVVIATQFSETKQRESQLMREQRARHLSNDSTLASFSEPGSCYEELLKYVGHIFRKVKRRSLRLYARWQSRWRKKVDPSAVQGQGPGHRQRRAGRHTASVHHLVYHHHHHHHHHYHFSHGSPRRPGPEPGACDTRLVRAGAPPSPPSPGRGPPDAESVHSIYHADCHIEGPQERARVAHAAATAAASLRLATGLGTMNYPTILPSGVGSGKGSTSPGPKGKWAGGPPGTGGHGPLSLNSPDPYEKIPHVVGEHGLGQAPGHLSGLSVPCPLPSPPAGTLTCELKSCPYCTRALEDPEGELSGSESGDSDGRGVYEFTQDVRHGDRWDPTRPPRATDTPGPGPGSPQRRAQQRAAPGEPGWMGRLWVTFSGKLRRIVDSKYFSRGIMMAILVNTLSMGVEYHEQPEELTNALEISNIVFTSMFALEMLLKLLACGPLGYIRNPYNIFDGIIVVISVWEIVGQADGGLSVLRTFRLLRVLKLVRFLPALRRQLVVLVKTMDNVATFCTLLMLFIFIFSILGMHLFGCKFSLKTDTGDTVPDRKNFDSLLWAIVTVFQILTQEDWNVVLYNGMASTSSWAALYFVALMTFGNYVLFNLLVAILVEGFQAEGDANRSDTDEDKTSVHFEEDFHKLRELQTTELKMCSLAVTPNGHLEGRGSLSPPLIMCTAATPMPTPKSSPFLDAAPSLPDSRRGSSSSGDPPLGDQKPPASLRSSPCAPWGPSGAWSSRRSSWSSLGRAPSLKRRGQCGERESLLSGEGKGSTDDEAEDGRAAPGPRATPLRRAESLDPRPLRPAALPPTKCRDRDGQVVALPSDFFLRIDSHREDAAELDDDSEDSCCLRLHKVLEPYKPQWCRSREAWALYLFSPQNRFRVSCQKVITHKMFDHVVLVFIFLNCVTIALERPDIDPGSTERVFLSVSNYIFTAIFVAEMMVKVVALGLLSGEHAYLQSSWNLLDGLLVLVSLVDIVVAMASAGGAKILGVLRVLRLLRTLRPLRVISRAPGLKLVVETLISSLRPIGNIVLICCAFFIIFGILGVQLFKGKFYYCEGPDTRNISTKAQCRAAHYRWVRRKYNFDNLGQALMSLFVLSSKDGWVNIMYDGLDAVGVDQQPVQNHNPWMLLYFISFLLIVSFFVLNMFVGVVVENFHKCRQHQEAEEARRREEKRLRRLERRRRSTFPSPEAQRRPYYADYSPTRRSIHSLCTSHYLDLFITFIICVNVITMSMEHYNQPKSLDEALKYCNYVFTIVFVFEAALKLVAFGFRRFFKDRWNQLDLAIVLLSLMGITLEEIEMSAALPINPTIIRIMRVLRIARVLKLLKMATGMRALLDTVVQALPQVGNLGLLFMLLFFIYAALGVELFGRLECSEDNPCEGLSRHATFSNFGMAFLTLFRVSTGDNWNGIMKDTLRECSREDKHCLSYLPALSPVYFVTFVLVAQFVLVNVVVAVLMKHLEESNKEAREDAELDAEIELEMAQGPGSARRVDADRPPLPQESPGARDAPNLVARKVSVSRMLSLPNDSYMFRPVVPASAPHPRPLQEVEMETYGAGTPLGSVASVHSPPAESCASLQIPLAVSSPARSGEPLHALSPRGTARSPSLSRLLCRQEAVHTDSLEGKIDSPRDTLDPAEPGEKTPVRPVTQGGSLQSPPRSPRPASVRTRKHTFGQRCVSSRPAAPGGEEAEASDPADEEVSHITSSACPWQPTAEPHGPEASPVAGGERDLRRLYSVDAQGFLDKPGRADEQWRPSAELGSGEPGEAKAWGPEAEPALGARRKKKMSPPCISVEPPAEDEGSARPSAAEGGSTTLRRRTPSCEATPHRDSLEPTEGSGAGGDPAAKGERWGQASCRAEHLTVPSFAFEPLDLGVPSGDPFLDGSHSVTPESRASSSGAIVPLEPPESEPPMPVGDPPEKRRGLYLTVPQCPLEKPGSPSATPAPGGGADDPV
Method: Representative compounds of the present invention were tested on the selective antagonistic effect against T-type calcium channels (Cav3.2) by way of the following Test Example. For each test, human embryonic kidney cells (HEK293 cells) in which human T-type calcium channels (human Cav3.2) were stably expressed were used.
HEK293 cells in which human Cav3.2 were stably expressed were cultured at 37° C. in Alpha-MEM containing 10% (v/v) fetal bovine serum (FBS), penicillin (100 U/mL), streptomycin (100 μg/mL) and G418 (250 μg/mL). The cells were suspended in the culture medium and seeded onto a 96-well plate, and then the cells were cultured for 24 hours. The culture medium was removed, and the culture medium was replaced with S-MEM containing 5% (v/v) FBS, calcium chloride (0.5 mmol/L), L-glutamine (2 mmol/L), L-alanine (8.9 ng/mL), L-asparagine (13.2 ng/mL), L-aspartic acid (1.33 ng/mL), L-glutamic acid (1.47 ng/mL), glycine (7.5 ng/mL), L-proline (11.5 ng/mL), L-serine (10.5 ng/mL), penicillin (100 U/mL), and streptomycin (100 μg/mL). The cells were cultured for another 24 hours. The culture medium was removed again, and the cells were washed with an assay buffer (140 mmol/L sodium chloride, 5 mmol/L potassium chloride, 0.5 mmol/L magnesium chloride, 0.5 mmol/L calcium chloride, 10 mmol/L glucose, 0.4 mmol/L magnesium sulfate, 10 mmol/L HEPES, and 250 μmol/L sulfinpyrazone, pH 7.4) that had been kept warm at 37° C. Subsequently, the assay buffer in which Fura2-AM, which is a fluorescent Ca^2+ indicator, was dissolved at 5 μM was added to the cells, and the cells were cultured at 37° C. for 30 minutes. The assay buffer containing dissolved Fura2 was removed, and the cells were washed with the assay buffer. Subsequently, the assay buffer to which a test compound had been added was added to the cells, and the cells were cultured for 15 minutes. The plate was placed in a fluorescence analyzer (Flex Station II, Molecular Devices, LLC), the baseline was measured, and then the change in the intracellular calcium concentration that was caused when an assay buffer containing 100 mmol/L calcium chloride was added, was measured (excited at 340 nm and 380 nm, and detected at 510 nm). Thus, the fluorescence intensity ratios obtainable at the respective wavelengths were calculated.
Meanwhile, the test compound solution was prepared by dissolving each of the test compounds in DMSO to a concentration of 10 mmol/L, and then adding the assay buffer to a predetermined concentration. As a control solution, DMSO was used instead of the test compounds.
The inhibitory effect value (%) of each test compound was calculated by subtracting the average value of the fluorescence intensity ratio for the period of 0 to 20 seconds after the initiation of measurement, from the average value of the fluorescence intensity ratio for the period of 45 to 50 seconds after the initiation of measurement, and comparing the activity in the presence of the test compound with the value in the control solution as the maximum activity of Cav3.2.
Curve fitting formula (Model 08: Sigmoidal Inhibition Curve, Vmax+Y2 to Y2) Y=Vmax×(1−(X^n/(K^n+X^n)))+Y2
% inhibition value=(RFU (compound)—RFU(LC))/(RFU (HC)−(RFU(LC))
HC: Average of RFU value for the period of 25 to 30 seconds after the addition of Ca^2+-containing assay buffer after the control solution treatment (for the period of 45 to 50 seconds after the initiation of measurement)
LC: Average of RFU value for the period of 25 to 30 seconds after the addition of non-Ca^2+-containing assay buffer after the control solution treatment (for the period of 45 to 50 seconds after the initiation of measurement)
The RFU in the formula represents the relative fluorescence unit.

[2] = biological target: T1, human T-type calcium channels (human Cav3.2); experiment: Electrophysiological test (patch clamp method) in HEK293 cells stably expressing human Cav3.2; assay type: cell-based; details: auto-patch clamp, peak calcium current, holding potential -80 mV, pulse of -20 mV
Method: For each test, human embryonic kidney cells (HEK293 cells) in which human T-type calcium channels (human Cav3.2) were stably expressed were used.
HEK293 cells in which human Cav3.2 were stably expressed were cultured at 37° C. in Alpha-MEM containing 10% (v/v) fetal bovine serum (FBS), penicillin (100 U/mL), streptomycin (100 μg/mL) and G418 (250 μg/mL). The cells were dissociated by Accutase (Sigma-Aldrich Co.) treatment and were used as a suspension in the culture medium. The calcium current was measured with an auto-patch clamp system (Port-a-Patch, Nanion Technologies, GmbH), by using an internal solution (50 mmol/L CsCl, 10 mmol/L NaCl, 60 mmol/L CsF, 2 mmol/L MgCl2, 20 mmol/L EGTA, 10 mmol/L HEPES/CsOH, pH 7.2) and an external solution (80 mmol/L NaCl, 1 mmol/L TEAC1, 3 mmol/L KCl, 35 mmol/L CaCl2, 10 mmol/L MgCl2, 10 mmol/L HEPES, pH 7.2).
The inhibitory effect of the compound against the peak current was measured by fixing the holding potential at −80 mV, and applying a pulse of −20 mV to the cells at an interval of 5 seconds. The compound evaluation was carried out by sequentially replacing the external solution containing the compound (1 μmol/L, 3 μmol/L, 10 μmol/L, and 50 μmol/L), and measuring the current. The inhibition ratio was calculated from the peak current value, and the IC50 value was determined by converting the inhibition ratio according to a probit analysis, and then calculating the IC50 value from an approximation formula deduced by linear regression.

SMILES | pIC50 [1] | pIC50 [2]
OC(c1ccc(OC(F)(F)F)cc1)c1nc2cc(F)ccc2[nH]1 (stereo not shown) [Example 1, (5-Fluoro-1H-benzimidazol-2-yl)-(4-trifluoromethoxyphenyl)methanol] | 6.49 | 5.72
OC(c1ccc(SC(F)(F)F)cc1)c1nc2cc(F)ccc2[nH]1 (stereo not shown) [Example 3] | 6.33 | –
OC(c1ccc(C(F)(F)F)cc1)c1nc2cc(F)ccc2[nH]1 (stereo not shown) [Example 4] | 6.19 | –
OC(c1ccc(C(F)(F)F)c(F)c1)c1nc2cc(F)ccc2[nH]1 (stereo not shown) [Example 5] | 6.68 | –
OC(c1ccc(OC(F)(F)C(F)F)cc1)c1nc2cc(F)ccc2[nH]1 (stereo not shown) [Example 6] | 6.23 | –
OC(c1ccc(OC(F)(F)F)c(F)c1)c1nc2cc(F)ccc2[nH]1 (stereo not shown) [Example 12] | 7.00 | –
OC(c1ccc(OC(F)(F)F)c(Br)c1)c1nc2cc(F)ccc2[nH]1 (stereo not shown) [Example 13] | 6.57 | –
OC(c1ccc2c(c1)OC(F)(F)O2)c1nc2cc(F)ccc2[nH]1 (stereo not shown) [Example 16] | 6.31 | –
CCOC(c1ccc(C(F)(F)F)cc1)c1nc2cc(F)ccc2[nH]1 (stereo not shown) [Example 27] | 6.04 | –
CCOC(c1ccc(OC(F)(F)F)c(F)c1)c1nc2cc(F)ccc2[nH]1 (stereo not shown) [Example 29] | 6.43 | –
CCOC(c1ccc2c(c1)OC(F)(F)O2)c1nc2cc(F)ccc2[nH]1 (stereo not shown) [Example 32] | 6.20 | –
OC(c1ccc(OC(F)(F)F)cc1)c1nc2cc(Cl)cnc2[nH]1 (stereo not shown) [Example 44, (6-Chloro-3H-imidazo[4,5-b]pyridin-2-yl)-(4-trifluoromethoxyphenyl)methanol] | 8.00 | 6.00
OC(c1ccc(OC(F)(F)F)cc1)c1nc2ccc(Cl)nc2[nH]1 (stereo not shown) [Example 46] | 6.66 | –
CCCSc1ccc2[nH]c(C(O)c3ccc(OC(F)(F)F)cc3)nc2c1 (stereo not shown) [Example 47] | 6.23 | –
OC(c1ccc(OC(F)(F)F)cc1)c1nc2cccnc2[nH]1 (stereo not shown) [Example 49] | 6.80 | –
OC(c1ccc2c(c1)OC(F)(F)O2)c1nc2cc(Cl)cnc2[nH]1 (stereo not shown) [Example 50] | 7.30 | –
CCOC(c1ccc(OC(F)(F)F)cc1)c1nc2cc(Cl)cnc2[nH]1 (stereo not shown) [Example 53] | 6.77 | 5.75
CCOC(c1ccc(OCc2ccc(F)cc2)cc1)c1nc2cc(Cl)cnc2[nH]1 (stereo not shown) [Example 58] | 6.15 | –
CCOC(c1ccc(OC(F)(F)F)cc1)c1nc2cc(F)ccc2[nH]1 (stereo not shown) [Example 70, 2-[Ethoxy(4-trifluoromethoxyphenyl)methyl]-5-fluoro-1H-benzimidazole] | 6.24 | 5.75
COC(c1ccc(OC(F)(F)F)cc1)c1nc2cc(F)ccc2[nH]1 (stereo not shown) [Example 89] | 6.11 | –
CCOc1ccc2[nH]c(C(OCC)c3ccc(SC(F)(F)F)cc3)nc2c1 (stereo not shown) [Example 91] | 6.02 | –
OC(c1ccc(OC(F)(F)F)cc1)c1nc2cc(Br)ccc2[nH]1 (stereo not shown) [Example 112] | 6.43 | –
N#Cc1ccc2[nH]c(C(O)c3ccc(OC(F)(F)F)cc3)nc2c1 (stereo not shown) [Example 114, 2-[Hydroxy(4-trifluoromethoxyphenyl)methyl]-1H-benzimidazole-5-carbonitrile] | 6.72 | –
CCOC(c1ccc(OC(F)(F)F)cc1)c1nc2cc(C#N)ccc2[nH]1 (stereo not shown) [Example 115, 2-[Ethoxy(4-trifluoromethoxyphenyl)methyl]-1H-benzimidazole-5-carbonitrile] | 6.00 | –
